Test results from patent publication US9790209B2, “Kinase inhibitors” (Respivert Limited, priority 2012, dated 2017).
Where two headings read alike, the source gives them in different places.

Columns and labels:
p38 MAPKα = p38 MAPKα (Homo sapiens (Human), UniProt Q16539); assay: p38 MAPKα enzyme inhibition (Method 2), Z-LYTE FRET; assay type: biochemical
Description: (§1) The enzyme inhibitory activities of compounds disclosed herein are determined by FRET using synthetic peptides labelled with both donor and acceptor fluorophores (Z-LYTE, Invitrogen Ltd., Paisley, UK).
The inhibitory activities of test compounds against the p38 MAPKα isoform (MAPK14: Invitrogen), are evaluated indirectly by determining the level of activation/phosphorylation of the down-stream molecule, MAPKAP-K2. The p38 MAPKα protein (80 ng/mL, 2.5 μL) is mixed with the test compound (2.5 μL of either 4 μg/mL, 0.4 μg/mL, 0.04 μg/mL or 0.004 μg/mL) for 2 hr at RT. […] The mixture is incubated for 1 hr at RT. Development reagent (protease, […]) is added for 1 hr prior to detection in a fluorescence microplate reader (Varioskan® Flash, ThermoFisher Scientific).
This method follows the same steps as Method 1 above, but utilises a higher concentration of the p38 MAPKα protein (2.5 μL of 200 ng/mL protein instead of 2.5 μL of 80 ng/mL protein) for mixing with the test compound.
(§2) In all cases, the site-specific protease cleaves non-phosphorylated peptide only and eliminates the FRET signal. Phosphorylation levels of each reaction are calculated using the ratio of coumarin emission (donor) over fluorescein emission (acceptor), for which high ratios indicate high phosphorylation and low ratios indicate low phosphorylation levels. The percentage inhibition of each reaction is calculated relative to non-inhibited control and the 50% inhibitory concentration (IC50 value) is then calculated from the concentration-response curve.

c-Src = c-Src (Homo sapiens (Human), UniProt P12931); assay: c-Src enzyme inhibition, Z-LYTE FRET; assay type: biochemical
Description: as §1
(§3) The inhibitory activities of compounds of the invention against c-Src and Syk enzymes (Invitrogen), are evaluated in a similar fashion to that described hereinabove. The relevant enzyme (3000 ng/mL or 2000 ng/mL respectively, 2.5 μL) is incubated with the test compound (either 4 μg/mL, 0.4 μg/mL, 0.04 μg/mL, or 0.004 μg/mL, 2.5 μL each) for 2 hr at RT. The FRET peptides (8 μM. 2.5 μL), and appropriate ATP solutions (2.5 μL, 800 μM for c-Src, and 60 μM ATP for Syk) are then added to the enzymes/compound mixtures and incubated for 1 hr. Development reagent (protease, 5 μL) is added for 1 hr prior to detection in a fluorescence microplate reader (Varioskan® Flash, ThermoFisher Scientific).
as §2

Syk = Syk (Homo sapiens (Human), UniProt P43405); assay: Syk enzyme inhibition, Z-LYTE FRET; assay type: biochemical
Description: as §1, §3, §2

GSK3α = GSK3α (Homo sapiens (Human), UniProt P49840); assay: GSK 3α enzyme inhibition (Method 2), Z-LYTE FRET; assay type: biochemical
Description: as §1
The inhibitory activities of compounds of the invention against the GSK 3α enzyme isoform (Invitrogen), are evaluated by determining the level of activation/phosphorylation of the target peptide. The GSK3-α protein (500 ng/mL, 2.5 μL) is mixed with the test compound (2.5 μL at either 4 μg/mL, 0.4 μg/mL, 0.04 μg/mL, or 0.004 μg/mL) for 2 hr at RT. The FRET peptide (8 μM, 2.5 μL), which is a phosphorylation target for GSK3α, and ATP (40 μM, 2.5 μL) are then added to the enzyme/compound mixture and the resulting mixture incubated for 1 hr. Development reagent (protease, 5 μL) is added for 1 hr prior to detection in a fluorescence microplate reader (Varioskan® Flash, ThermoFisher Scientific).
as §2
This method follows the same steps as Method 1 above, but utilises a shorter period of mixing of the test compound (105 minutes instead of 2 hours) with the GSK3-α protein.

d-U937 cells = assay: LPS-induced TNFα/IL-8 release in d-U937 cells; assay type: cell-based; details: Homo sapiens, dU937, LPS-stimulated d-U937 cells
Description: U937 cells, a human monocytic cell line, are differentiated to macrophage-type cells by incubation with phorbol myristate acetate (PMA; 100 ng/mL) for 48 to 72 hr. Cells are pre-incubated with final concentrations of test compound for 2 hr and are then stimulated with 0.1 μg/mL of LPS (from E. Coli: 0111:B4, Sigma) for 4 hr. The supernatant is collected for determination of TNFα and IL-8 concentrations by sandwich ELISA (Duo-set, R&D systems). The inhibition of TNFα production is calculated as a percentage of that achieved by 10 μg/mL of BIRB796 at each concentration of test compound by comparison against vehicle control. The relative 50% effective concentration (REC50) is determined from the resultant concentration-response curve. The inhibition of IL-8 production is calculated at each concentration of test compound by comparison with vehicle control. The 50% inhibitory concentration (IC50) is determined from the resultant concentration-response curve.

PBMCs [1] = assay: LPS-induced TNFα/IL-8 release in PBMC cells; assay type: cell-based; details: Homo sapiens, LPS-stimulated PBMCs
Description: Peripheral blood mononuclear cells (PBMCs) from healthy subjects are separated from whole blood using a density gradient (Lymphoprep, Axis-Shield Healthcare). The PBMCs are seeded in 96 well plates and treated with compounds at the desired concentration for 2 hours before addition of 1 ng/mL LPS (Escherichia Coli 0111:B4 from Sigma Aldrich) for 24 hours under normal tissue culture conditions (37° C., 5% CO2). The supernatant is harvested for determination of IL-8 and TNFα concentrations by sandwich ELISA (Duo-set, R&D systems) and read on the fluorescence microplate reader (Varioskan® Flash, ThermoFisher Scientific). The concentration at 50% inhibition (IC50) of IL-8 and TNFα production is calculated from the dose response curve.

PBMCs [2] = assay: IL-2 and IFN gamma release in CD3/CD28 stimulated PBMC cells; assay type: cell-based; details: Homo sapiens
Description: PBMCs from healthy subjects are separated from whole blood using a density gradient (Lymphoprep, Axis-Shield Healthcare). Cells are added to a 96 well plate pre-coated with a mixture of CD3/CD38 monoclonal antibodies (0.3 μg/mL eBioscience and 3 μg/mL BD Pharmingen respectively). Compound at the desired concentration is then added to the wells and the plate left for 3 days under normal tissue culture conditions. Supernatants are harvested and IL-2 and IFN gamma release determined by Sandwich ELISA (Duo-set, R&D System). The IC50 is determined from the dose response curve.

HT29 cells = assay: IL-1-induced IL-8 release in HT29 cells; assay type: cell-based; details: Homo sapiens, HT-29, IL-1β-stimulated HT29 cells, read-out: IC50 Values for Inhibition of Cytokine Release HT29 cells IL-8
Description: HT29 cells, a human colon adenocarcinoma cell line, are plated in a 96 well plate (24 hrs) and pre-treated with compounds at the desired concentration for 2 hours before addition of 5 ng/mL of IL-1β (Abcam) for 24 hours. Supernatants are harvested for IL-8 quantification by Sandwich ELISA (Duo-set, R&D System). The IC50 is determined from the dose response curve.

[3] = IL-8, read-out: IC50 Values for Inhibition of Cytokine Release dU937 cells IL-8
[4] = TNFα (method describes REC50 relative to BIRB796), read-out: IC50 Values for Inhibition of Cytokine Release dU937 cells TNFα
[5] = IL-8, read-out: IC50 Values for Inhibition of Cytokine Release PBMCs IL-8
[6] = IL-2, read-out: IC50 Values for Inhibition of Cytokine Release PBMCs IL-2
[7] = IFNγ, read-out: IC50 Values for Inhibition of Cytokine Release PBMCs IFNγ

Chain of c-Src (P12931 whole entry, looked up): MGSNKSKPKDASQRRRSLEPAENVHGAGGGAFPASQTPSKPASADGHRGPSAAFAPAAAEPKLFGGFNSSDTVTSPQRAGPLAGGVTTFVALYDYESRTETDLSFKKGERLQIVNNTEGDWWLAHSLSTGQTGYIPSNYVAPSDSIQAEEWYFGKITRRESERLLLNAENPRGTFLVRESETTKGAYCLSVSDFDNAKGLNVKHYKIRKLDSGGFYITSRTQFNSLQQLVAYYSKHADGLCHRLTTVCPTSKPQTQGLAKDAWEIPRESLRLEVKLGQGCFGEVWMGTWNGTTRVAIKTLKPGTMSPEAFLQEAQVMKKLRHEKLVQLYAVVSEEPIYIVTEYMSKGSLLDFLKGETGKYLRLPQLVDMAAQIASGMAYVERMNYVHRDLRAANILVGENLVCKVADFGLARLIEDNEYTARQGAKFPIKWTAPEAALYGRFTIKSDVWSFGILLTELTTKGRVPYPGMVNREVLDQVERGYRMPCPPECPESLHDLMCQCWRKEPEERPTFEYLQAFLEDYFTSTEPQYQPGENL
Chain of GSK3α (P49840 whole entry): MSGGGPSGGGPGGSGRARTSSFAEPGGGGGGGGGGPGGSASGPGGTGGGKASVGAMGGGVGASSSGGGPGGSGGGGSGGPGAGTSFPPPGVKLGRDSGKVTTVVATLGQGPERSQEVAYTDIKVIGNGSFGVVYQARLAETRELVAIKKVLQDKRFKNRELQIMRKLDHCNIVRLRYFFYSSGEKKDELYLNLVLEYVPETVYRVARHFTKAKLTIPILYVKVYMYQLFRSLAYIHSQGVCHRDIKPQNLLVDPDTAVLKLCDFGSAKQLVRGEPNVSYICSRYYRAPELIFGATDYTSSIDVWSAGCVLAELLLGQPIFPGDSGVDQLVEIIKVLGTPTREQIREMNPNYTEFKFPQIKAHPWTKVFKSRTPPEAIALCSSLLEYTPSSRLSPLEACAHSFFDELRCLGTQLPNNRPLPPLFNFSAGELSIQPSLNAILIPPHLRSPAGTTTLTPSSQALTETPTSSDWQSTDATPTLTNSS
Chain of p38 MAPKα (Q16539 whole entry): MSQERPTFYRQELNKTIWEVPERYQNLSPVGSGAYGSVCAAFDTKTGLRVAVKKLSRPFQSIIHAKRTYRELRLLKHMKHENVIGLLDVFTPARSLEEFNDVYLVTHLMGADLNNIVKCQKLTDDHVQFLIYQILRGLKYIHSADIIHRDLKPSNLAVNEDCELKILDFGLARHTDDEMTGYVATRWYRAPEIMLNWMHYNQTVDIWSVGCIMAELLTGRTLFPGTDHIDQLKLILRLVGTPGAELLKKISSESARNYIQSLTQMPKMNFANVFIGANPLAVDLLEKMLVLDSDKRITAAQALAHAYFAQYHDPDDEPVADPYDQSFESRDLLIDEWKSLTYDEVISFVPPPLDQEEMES

Compound | IC50 (p38 MAPKα) [nM] | IC50 (c-Src) [nM] | IC50 (Syk) [nM] | IC50 (GSK3α) [nM] | IC50 (d-U937 cells; [3]) [nM] | IC50 (d-U937 cells; [4]) [nM] | IC50 (PBMCs [1]; [5]) [nM] | IC50 (PBMCs [1]; TNFα, assay (b), read-out: IC50 for inhibition of TNFα release in PBMCs) [nM] | IC50 (PBMCs [2]; [6]) [nM] | IC50 (HT29 cells) [nM] | IC50 (PBMCs [2]; [7]) [nM]
C#CC(C)(C)c1cc(NC(=O)Nc2ccc(Oc3ccnc(Nc4ccccc4)n3)c3ccccc23)n(-c2ccc(C)cc2)n1 [Example 1, 1-(3-(2-Methylbut-3-yn-2-yl)-1-(p-tolyl)-1H-pyrazol-5-yl)-3-(4-((2-(phenylamino)pyrimidin-4-yl)oxy)naphthalen-1-yl)urea] | 85 | 60 | > 1000 | > 10000 | 3.2 | 1.4 | 1.6 | 2.5 | – | – | –
C#CC(C)(C)c1cc(NC(=O)Nc2ccc(Oc3ccnc(Nc4ccc5c(c4)NC(=O)C5)n3)c3ccccc23)n(-c2ccc(C)cc2)n1 [Example 3, 1-(3-(2-Methylbut-3-yn-2-yl)-1-(p-tolyl)-1H-pyrazol-5-yl)-3-(4-((2-((2-oxoindolin-6-yl)amino)pyrimidin-4-yl)oxy)naphthalen-1-yl)urea] | 87 | 203 | 113 | > 10000 | 4.4 | 2.8 | 2.1 | – | 0.7 | 6 | –
C#CC(C)(C)c1cc(NC(=O)Nc2ccc(Oc3ccnc(Nc4cc(C(=O)NCCN5CCOCC5)cc(C(F)(F)F)c4)n3)c3ccccc23)n(-c2ccc(C)cc2)n1 [Example 12, 3-((4-((4-(3-(3-(2-Methylbut-3-yn-2-yl)-1-(p-tolyl)-1H-pyrazol-5-yl)ureido)naphthalen-1-yl)oxy)pyrimidin-2-yl)amino)-N-(2-morpholinoethyl)-5-(trifluoromethyl)benzamide] | 214 | 74 | 275 | 2310 | 1.2 | – | 2.1 | – | 171 | 3.7 | 2.6
C#CC(C)(C)c1cc(NC(=O)Nc2ccc(Oc3ccnc(Nc4cc(OC(F)(F)F)cc(C(=O)NCCN5CCOCC5)c4)n3)c3ccccc23)n(-c2ccc(C)cc2)n1 [Example 14, 3-((4-((4-(3-(3-(2-Methylbut-3-yn-2-yl)-1-(p-tolyl)-1H-pyrazol-5-yl)ureido)naphthalen-1-yl)oxy)pyrimidin-2-yl)amino)-N-(2-morpholinoethyl)-5-(trifluoromethoxy)benzamide] | 273 | 37 | 203 | 5440 | 1.8 | – | 1.4 | – | 170 | 3.6 | 2
C#Cc1cc(Nc2nccc(Oc3ccc(NC(=O)Nc4cc(C(C)(C)C#C)nn4-c4ccc(C)cc4)c4ccccc34)n2)cc(C(=O)NCCN2CCOCC2)c1 [Example 15, 3-Ethynyl-5-((4-((4-(3-(3-(2-methylbut-3-yn-2-yl)-1-(p-tolyl)-1H-pyrazol-5-yl)ureido)naphthalen-1-yl)oxy)pyrimidin-2-yl)amino)-N-(2-morpholinoethyl)benzamide] | 67 | 16 | 40 | 3590 | 1.3 | – | 0.8 | – | 69.3 | 2.5 | 2.4
